# Data taken from patent US7396837B2, “Antitumoral analogs of lamellarins” (Pharma Mar, S.A.U., priority 2002, dated 2008).
# Experiments:
# Assay type in all cases: cell-based
# SK-MEL-28 = assay: SRB colorimetric cell growth inhibition assay, SK-MEL-28; details: Homo sapiens, SK-MEL-28, MEL-28; for GI50: GI=growth inhibition, read-out: GI50 MEL-28; for CC50: cell killing (cytotoxic effect), read-out: LC50 MEL-28; for IC (TGI): total growth inhibition (cytostatic effect), read-out: TGI MEL-28
# Method in brief: (§1)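 Human tumour cells continuously exposed to compound in 96-well culture; growth and viability quantified colorimetrically by sulforhodamine B staining. Mean ± SD from triplicate wells; GI (growth inhibition), TGI (total growth inhibition, cytostatic) and LC (cell killing, cytotoxic) parameters derived.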
# HeLa-APL = assay: SRB colorimetric cell growth inhibition assay, HeLa-APL (aplidine resistant); details: Homo sapiens, HELA-APL; for GI50: GI=growth inhibition, read-out: GI50 HELA-APL; for CC50: cell killing (cytotoxic effect), read-out: LC50 HELA-APL; for IC (TGI): total growth inhibition (cytostatic effect), read-out: TGI HELA-APL
# Method in brief: as §1
# IGROV-ET = assay: SRB colorimetric cell growth inhibition assay, IGROV-ET (ET-743 resistant); details: Homo sapiens, IGROV-ET; for GI50: GI=growth inhibition, read-out: GI50 IGROV-ET; for CC50: cell killing (cytotoxic effect), read-out: LC50 IGROV-ET; for IC (TGI): total growth inhibition (cytostatic effect), read-out: TGI IGROV-ET
# Method in brief: as §1
# LNCaP = assay: SRB colorimetric cell growth inhibition assay, LNCaP; details: Homo sapiens, LNCaP, LN-caP; for GI50: GI=growth inhibition, read-out: GI50 LN-caP; for CC50: cell killing (cytotoxic effect), read-out: LC50 LN-caP; for IC (TGI): total growth inhibition (cytostatic effect), read-out: TGI LN-caP
# Method in brief: as §1
# A-549 = assay: SRB colorimetric cell growth inhibition assay, A-549; details: Homo sapiens, A549, A-549; for GI50: GI=growth inhibition, read-out: GI50 A-549; for CC50: cell killing (cytotoxic effect), read-out: LC50 A-549; for IC (TGI): total growth inhibition (cytostatic effect), read-out: TGI A-549
# Method in brief: as §1
# IGROV = assay: SRB colorimetric cell growth inhibition assay, IGROV; details: Homo sapiens, IGROV; for GI50: GI=growth inhibition, read-out: GI50 IGROV; for CC50: cell killing (cytotoxic effect), read-out: LC50 IGROV; for IC (TGI): total growth inhibition (cytostatic effect), read-out: TGI IGROV
# Method in brief: as §1
# K-562 = assay: SRB colorimetric cell growth inhibition assay, K-562; details: Homo sapiens, K562, K-562; for GI50: GI=growth inhibition, read-out: GI50 K-562; for CC50: cell killing (cytotoxic effect), read-out: LC50 K-562; for IC (TGI): total growth inhibition (cytostatic effect), read-out: TGI K-562
# Method in brief: as §1
# HeLa = assay: SRB colorimetric cell growth inhibition assay, HeLa; details: Homo sapiens, HeLa; for GI50: GI=growth inhibition, read-out: GI50 HELA; for CC50: cell killing (cytotoxic effect), read-out: LC50 HELA; for IC (TGI): total growth inhibition (cytostatic effect), read-out: TGI HELA
# Method in brief: as §1
# PANC-1 = assay: SRB colorimetric cell growth inhibition assay, PANC-1; details: Homo sapiens, PANC-1, PANC-1; for GI50: GI=growth inhibition, read-out: GI50 PANC-1; for CC50: cell killing (cytotoxic effect), read-out: LC50 PANC-1; for IC (TGI): total growth inhibition (cytostatic effect), read-out: TGI PANC-1
# Method in brief: as §1
# HT-29 = assay: SRB colorimetric cell growth inhibition assay, HT-29; details: Homo sapiens, HT-29, HT-29; for GI50: GI=growth inhibition, read-out: GI50 HT-29; for CC50: cell killing (cytotoxic effect), read-out: LC50 HT-29; for IC (TGI): total growth inhibition (cytostatic effect), read-out: TGI HT-29
# Method in brief: as §1
# SK-BR-3 = assay: SRB colorimetric cell growth inhibition assay, SK-BR-3; details: Homo sapiens, SK-BR-3, SK-BR-3; for GI50: GI=growth inhibition, read-out: GI50 SK-BR-3; for CC50: cell killing (cytotoxic effect), read-out: LC50 SK-BR-3; for IC (TGI): total growth inhibition (cytostatic effect), read-out: TGI SK-BR-3
# Method in brief: as §1
# LoVo-Dox = assay: SRB colorimetric cell growth inhibition assay, LoVo-Dox (MDR); details: Homo sapiens, LOVO-DOX; for GI50: GI=growth inhibition, read-out: GI50 LOVO-DOX; for CC50: cell killing (cytotoxic effect), read-out: LC50 LOVO-DOX; for IC (TGI): total growth inhibition (cytostatic effect), read-out: TGI LOVO-DOX
# Method in brief: as §1
# LoVo = assay: SRB colorimetric cell growth inhibition assay, LoVo; details: Homo sapiens, LoVo; for GI50: GI=growth inhibition, read-out: GI50 LOVO; for CC50: cell killing (cytotoxic effect), read-out: LC50 LOVO; for IC (TGI): total growth inhibition (cytostatic effect), read-out: TGI LOVO
# Method in brief: as §1
# DU-145 = assay: SRB colorimetric cell growth inhibition assay, DU-145; details: Homo sapiens, DU-145, DU-145; for GI50: GI=growth inhibition, read-out: GI50 DU-145; for CC50: cell killing (cytotoxic effect), read-out: LC50 DU-145; for IC (TGI): total growth inhibition (cytostatic effect), read-out: TGI DU-145
# Method in brief: as §1
smiles,measurement,setting,value
COc1cc(-c2c3c4cc(OC)c(OC(=O)[C@@H](N)C(C)C)cc4oc(=O)c3n3ccc4cc(OC(=O)[C@@H](N)C(C)C)c(OC)cc4c23)ccc1OC(=O)[C@@H](N)C(C)C [Compound 195],GI50,SK-MEL-28,44.1 nM
same,CC50,SK-MEL-28,1940 nM
same,IC (TGI),SK-MEL-28,159 nM
same,GI50,HeLa-APL,87.6 nM
same,CC50,HeLa-APL,536 nM
same,IC (TGI),HeLa-APL,234 nM
same,GI50,IGROV-ET,41.7 nM
same,CC50,IGROV-ET,2740 nM
same,IC (TGI),IGROV-ET,215 nM
same,GI50,LNCaP,22.1 nM
same,CC50,LNCaP,365 nM
same,IC (TGI),LNCaP,86.4 nM
same,GI50,A-549,113 nM
same,CC50,A-549,11000 nM
same,IC (TGI),A-549,1150 nM
same,GI50,IGROV,25 nM
same,CC50,IGROV,855 nM
same,IC (TGI),IGROV,145 nM
same,GI50,K-562,11.7 nM
same,CC50,K-562,170 nM
same,IC (TGI),K-562,40.9 nM
same,GI50,HeLa,51.3 nM
same,CC50,HeLa,633 nM
same,IC (TGI),HeLa,204 nM
same,GI50,PANC-1,56.9 nM
same,CC50,PANC-1,3110 nM
same,IC (TGI),PANC-1,363 nM
same,GI50,HT-29,2150 nM
same,CC50,HT-29,8620 nM
same,IC (TGI),HT-29,4310 nM
same,GI50,SK-BR-3,45.5 nM
same,CC50,SK-BR-3,840 nM
same,IC (TGI),SK-BR-3,89.8 nM
same,GI50,LoVo-Dox,106 nM
same,CC50,LoVo-Dox,2500 nM
same,IC (TGI),LoVo-Dox,500 nM
same,GI50,LoVo,150 nM
same,CC50,LoVo,783 nM
same,IC (TGI),LoVo,342 nM
same,GI50,DU-145,13.7 nM
same,CC50,DU-145,58.5 nM
same,IC (TGI),DU-145,28.4 nM
COc1cc2c(cc1O)CCn1c-2cc2c3cc(OC)c(O)cc3oc(=O)c21 [Compound 196],GI50,SK-MEL-28,675 nM
same,CC50,SK-MEL-28,26400 nM
same,IC (TGI),SK-MEL-28,8990 nM
same,GI50,HeLa-APL,117 nM
same,CC50,HeLa-APL,1920 nM
same,IC (TGI),HeLa-APL,511 nM
same,GI50,IGROV-ET,849 nM
same,CC50,IGROV-ET,26400 nM
same,IC (TGI),IGROV-ET,3850 nM
same,GI50,LNCaP,398 nM
same,CC50,LNCaP,9780 nM
same,IC (TGI),LNCaP,1450 nM
same,GI50,A-549,1680 nM
same,CC50,A-549,26400 nM
same,IC (TGI),A-549,26400 nM
same,GI50,IGROV,691 nM
same,CC50,IGROV,16500 nM
same,IC (TGI),IGROV,2490 nM
same,GI50,K-562,234 nM
same,CC50,K-562,1500 nM
same,IC (TGI),K-562,614 nM
same,GI50,HeLa,351 nM
same,CC50,HeLa,26400 nM
same,IC (TGI),HeLa,1930 nM
same,GI50,PANC-1,957 nM
same,CC50,PANC-1,26400 nM
same,IC (TGI),PANC-1,7250 nM
same,GI50,HT-29,8460 nM
same,CC50,HT-29,26400 nM
same,IC (TGI),HT-29,26400 nM
same,GI50,SK-BR-3,654 nM
same,CC50,SK-BR-3,26400 nM
same,IC (TGI),SK-BR-3,1650 nM
same,GI50,LoVo-Dox,517 nM
same,CC50,LoVo-Dox,26400 nM
same,IC (TGI),LoVo-Dox,26400 nM
same,GI50,LoVo,799 nM
same,CC50,LoVo,26400 nM
same,IC (TGI),LoVo,3530 nM
same,GI50,DU-145,414 nM
same,CC50,DU-145,11200 nM
same,IC (TGI),DU-145,1650 nM
